Values quoted from earlier work in article PMC13179673 (European journal of pharmaceutical sciences : official …, 2025).

Key:
OHT rabbit eyes = tested on: OHT rabbit eyes; set-up: method as in Behar-Cohen et al., 1996; settings: eyedrop, ref Behar-Cohen et al., 1996
[1] = biological pH at 37°C

In the case of `[NH-]c1c[n+](N2CCOCC2)no1` [SIN-1, linsidomine], the “duration of IOP-lowering effect” value (OHT rabbit eyes) is given as ≤ 3 h and the half-life [1] is given as < 1 h.
